# In PubChem BioAssay AID1918954 (Molecular Pharmacology Branch, DTP, NCI, 2023):
# Tested on: MDA-MB-468 complex spheroids with HUVEC/MSC, viability
# Test: Anticancer human tumor MDA-MB-468 cell line growth inhibition;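 further: spheroids exposed to agents for seven days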;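 on viability, T/C: 100% = DMSO vehicle control viability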
# Settings: for IC50: curve of first compound; for viability, T/C: stronger effect = lower value
# Text: Multicellular complex tumor spheroid response to LSD1 Inhibitor Iadademstat in combination with a variety of drugs and investigational agents in selected tumor cell lines
# The current study was undertaken to assess response to LSD1 inhibitors in combination with standard-of-care drugs and investigational agents in solid tumor complex spheroid models as well as in the K-562 leukemia. Complex spheroids include a stromal component modeled by human endothelial cells (HUVEC) and fibroblasts modeled by human mesenchymal stem cells (MSCs). The concentration ranges selected for each drug and investigational agent were based upon clinically achievable concentrations if the clinical Cmax of the agent was known.
# Compounds. The drugs and investigational agents used in this study are listed on Table 1. All of the agents used, including staurosporine (NSC755774) and gemcitabine (NSC613327), were obtained from the Developmental Therapeutics Program, NCI. FDA-approved anticancer drugs are available from the NCI at http://dtp.nci.nih.gov/branches/dscb/oncology_drugset_explanation.html. Drugs and investigational agents were >95% pure by proton nuclear magnetic resonance (NMR) and liquid chromatography/mass spectrometry (LC/MS). Stock solutions were prepared at 400x in DMSO, stored at -70 degrees C, and diluted in fresh medium prior to their use. The final concentration of DMSO in cell culture wells never exceeded 0.25% (v/v). The FDA-approved anticancer drug set is available from the Developmental Therapeutics Program at https://dtp.cancer.gov/organization/dscb/obtaining/available_plates.htm. All drugs and investigational agents were tested over a range starting from a high concentration at or near the clinical Cmax and decreasing in half-log increments. If the clinical Cmax for an agent had not been determined, the highest concentration tested was 10 microM.
# Cell Lines. The patient-derived cancer cell (PDC) lines: 292921-168-R-J2-PDC, K24384-001-R-PDC, and 521955-158-R2-J5-PDC pancreatic carcinomas, 556581-035-R-J1 ovarian carcinoma, 324938-238-R-J1-PDC, 855422-203-R-J1-PDC and 883617-216-R-J1-PDC urothelial bladder carcinomas, 743489-274-T-PDC renal cell carcinoma, 138582-R-J1 Merkel cell tumor, K60290-347-R-J1 and K57222-313-R-J1-PDC glioblastomas, 653999-131-R-J2-PDC, LG0703-F948-PDC, and 349418-098-R-PDC non-small cell lung carcinomas, 885512-296-R-J2-PDC, 171881-019-R-J1-PDC breast carcinomas and 186277-243-T-J2-PDC and 233499-124-R-J2-PDC colon carcinomas were obtained from the NCI Patient-Derived Models Repository (PDMR, https://pdmr.cancer.gov). The established cell lines NCI/ADR-RES (RRID:CVCL_14520 and OVCAR-5 (RRID:CVCL_1628) ovarian carcinomas, 786-O (RRID:CVCL_1051) and A498 (RRID:CVCL_A498) renal cell carcinoma, NCI-H211 (ATCC, cat. CRL-5824; RRID:CVCL_1529), NCI-H196 (ATCC, cat. CRL-5823, RRID:CVCL_1509), SW 1271 (ATCC, cat. CRL-2177, RRID:CVCL_1716) and NCI-H1876 (ATCC, cat. CRL-5902, RRID:CVCL_1503) small cell lung carcinomas, MDA-MB-231 (RRID:CVCL_0062) and MDA-MB-468 (RRID:CVCL_0419)breast carcinomas (10-12). Pooled donor human umbilical vein endothelial cells (HUVEC, Lonza, cat. CC-2519) and human mesenchymal stem cells (hMSC, Lonza, cat. PT-2501) were purchased from Lonza (Walkersville, MD).
# Cell Culture. All cells were maintained in an incubator at 37 degrees C and 5% CO2 with 95% humidity. The PDC lines were cultured according to standard operating procedures established by the NCI PDMR (https://pdmr.cancer.gov). Briefly all PDCs were thawed and cultured in Matrigel-coated flasks prepared with a working solution of 1X Ham's F-12 nutrient mix, without supplementation (Invitrogen, Waltham, MA, cat. 11765054), 100 U/mL penicillin-streptomycin (Invitrogen, cat. 15140122), and 2.5% Matrigel (Corning Inc., Corning, NY, cat. 354248) for the first three passages. […]
compound,measurement,setting,value
Cn1ncnc1C1c2n[nH]c(=O)c3cc(F)cc(c23)NC1c1ccc(F)cc1 (stereo not given) + NC1CC1c1ccc(-c2cccc(O)c2)cc1,IC50,second compound 0.1 µM,87.7 nM
same,IC50,second compound 0.316 µM,> 100 nM
same,IC50,second compound 1 µM,> 100 nM
same,IC50,second compound 3.16 µM,12 nM
same,IC50,second compound 10 µM,2.6 nM
same,"viability, T/C","second compound 0.1 µM, first compound 0.000316 µM",98.1%
same,"viability, T/C","second compound 0.1 µM, first compound 0.001 µM",102%
same,"viability, T/C","second compound 0.1 µM, first compound 0.00316 µM",72.5%
same,"viability, T/C","second compound 0.1 µM, first compound 0.01 µM",73.1%
same,"viability, T/C","second compound 0.1 µM, first compound 0.0316 µM",64.6%
same,"viability, T/C","second compound 0.1 µM, first compound 0.1 µM",46.7%
same,"viability, T/C","second compound 0.316 µM, first compound 0.000316 µM",120%
same,"viability, T/C","second compound 0.316 µM, first compound 0.001 µM",79.1%
same,"viability, T/C","second compound 0.316 µM, first compound 0.00316 µM",67.4%
same,"viability, T/C","second compound 0.316 µM, first compound 0.01 µM",60.9%
same,"viability, T/C","second compound 0.316 µM, first compound 0.0316 µM",52.8%
same,"viability, T/C","second compound 0.316 µM, first compound 0.1 µM",46%
same,"viability, T/C","second compound 1 µM, first compound 0.000316 µM",93.2%
same,"viability, T/C","second compound 1 µM, first compound 0.001 µM",112%
same,"viability, T/C","second compound 1 µM, first compound 0.00316 µM",67%
same,"viability, T/C","second compound 1 µM, first compound 0.01 µM",57.6%
same,"viability, T/C","second compound 1 µM, first compound 0.0316 µM",61.9%
same,"viability, T/C","second compound 1 µM, first compound 0.1 µM",42.4%
same,"viability, T/C","second compound 3.16 µM, first compound 0.000316 µM",92.8%
same,"viability, T/C","second compound 3.16 µM, first compound 0.001 µM",85.5%
same,"viability, T/C","second compound 3.16 µM, first compound 0.00316 µM",74.5%
same,"viability, T/C","second compound 3.16 µM, first compound 0.01 µM",48.2%
same,"viability, T/C","second compound 3.16 µM, first compound 0.0316 µM",50.6%
same,"viability, T/C","second compound 3.16 µM, first compound 0.1 µM",39.1%
same,"viability, T/C","second compound 10 µM, first compound 0.000316 µM",74.1%
same,"viability, T/C","second compound 10 µM, first compound 0.001 µM",67.7%
same,"viability, T/C","second compound 10 µM, first compound 0.00316 µM",45.9%
same,"viability, T/C","second compound 10 µM, first compound 0.01 µM",33.5%
same,"viability, T/C","second compound 10 µM, first compound 0.0316 µM",34.8%
same,"viability, T/C","second compound 10 µM, first compound 0.1 µM",26.3%
